According to US20250360167A1 (Keryx Biopharmaceuticals, Inc., priority 2013, published 2025):

Assay: BET active surface area
Assay type: physicochemical
Source text: BET theory explains the physical adsorption of gas molecules onto a solid surface. The theory serves as the basis for the measurement of the specific surface area of a material. This theory allows the calculation of surface areas of materials in a very accurate manner and is thus capable of distinguishing differences between separate preparations of what would otherwise appear to be the same material. For example, activated carbon is a form of carbon that has been processed to make it extremely porous and thus to have a very large surface area. Activated carbon has been experimentally determined, using calculations derived from BET theory, to have a surface area of around 3000 m^2 g^−1.

[1] = Table 1, one value given per pair of samples

BET Active Surface Area [1] | BET Active Surface Area (Tables 2 and 3) [m^2/g] | Structure (SMILES)
0.61 | 0.61 | O=C([O-])CC(O)(CC(=O)[O-])C(=O)[O-].[Fe+3] [RFS-12-1]
19.85 |  | O=C([O-])CC(O)(CC(=O)[O-])C(=O)[O-].[Fe+3] [STM-182-1]
